The values below come from patent US11415576B2, “Method for measurement of vitamin D” (Roche Diagnostics Operations, Inc., priority 2014, dated 2022).

Each structure is given as a SMILES string.

The target in this assay is T1, ruthenylated Vitamin D-binding protein conjugate (Homo sapiens, UniProt P02774).
T1 sequence (P02774 17-474): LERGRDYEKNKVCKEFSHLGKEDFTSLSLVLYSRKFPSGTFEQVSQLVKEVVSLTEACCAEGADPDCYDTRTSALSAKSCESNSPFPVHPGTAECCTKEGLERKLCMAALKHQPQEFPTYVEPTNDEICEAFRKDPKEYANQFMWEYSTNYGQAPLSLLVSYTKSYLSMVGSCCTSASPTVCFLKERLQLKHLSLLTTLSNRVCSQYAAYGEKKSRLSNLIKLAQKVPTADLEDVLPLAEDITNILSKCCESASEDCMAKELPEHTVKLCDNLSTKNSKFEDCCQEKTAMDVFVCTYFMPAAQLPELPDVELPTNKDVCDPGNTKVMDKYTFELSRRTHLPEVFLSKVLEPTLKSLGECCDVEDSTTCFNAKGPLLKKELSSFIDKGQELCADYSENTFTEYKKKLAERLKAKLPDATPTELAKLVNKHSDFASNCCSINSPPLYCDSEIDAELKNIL
The experiment in a line: Elecsys Vitamin D total immunoassay, dilution series in Diluent Universal, without or with blocking reagent.

For the compound `C=C1CC[C@H](O)C/C1=C/C=C1\CCC[C@@]2(C)C1CC[C@@H]2[C@H](C)CCC(O)C(C)(C)O` (stereo partly shown) [24,25(OH)2VitD3, 24,25-dihydroxyvitamin D3], the B/B0 is given as 67% (24 nmoL/L, Reference, without blocking reagent); 95% (24 nmoL/L, with mAb<24,25(OH)2VitD3> 0.075 mg/mL in R1); 53% (48 nmoL/L, Reference, without blocking reagent); 92% (48 nmoL/L, with mAb<24,25(OH)2VitD3> 0.075 mg/mL in R1); 37% (72 nmoL/L, Reference, without blocking reagent); 91% (72 nmoL/L, with mAb<24,25(OH)2VitD3> 0.075 mg/mL in R1). The B/B0 by setting is: (96 nmoL/L, Reference, without blocking reagent) 32%; (96 nmoL/L, with mAb<24,25(OH)2VitD3> 0.075 mg/mL in R1) 91%; (120 nmoL/L, Reference, without blocking reagent) 26%; (120 nmoL/L, with mAb<24,25(OH)2VitD3> 0.075 mg/mL in R1) 88%; (144 nmoL/L, Reference, without blocking reagent) 25%; (144 nmoL/L, with mAb<24,25(OH)2VitD3> 0.075 mg/mL in R1) 88%. Also, the B/B0 runs as follows: (192 nmoL/L, Reference, without blocking reagent) 21%; (192 nmoL/L, with mAb<24,25(OH)2VitD3> 0.075 mg/mL in R1) 86%; (240 nmoL/L, Reference, without blocking reagent) 18%; (240 nmoL/L, with mAb<24,25(OH)2VitD3> 0.075 mg/mL in R1) 82%; (288 nmoL/L, Reference, without blocking reagent) 15%; (288 nmoL/L, with mAb<24,25(OH)2VitD3> 0.075 mg/mL in R1) 76%. The B/B0 by setting is: (360 nmoL/L, Reference, without blocking reagent) 13%; (360 nmoL/L, with mAb<24,25(OH)2VitD3> 0.075 mg/mL in R1) 74%; (480 nmoL/L, Reference, without blocking reagent) 11%; (480 nmoL/L, with mAb<24,25(OH)2VitD3> 0.075 mg/mL in R1) 66%. Moreover, the “cross-reactivity of the reference immunoassay” value (without blocking reagent) is recorded as “showed cross-reactivity”.
With `C=C1CC[C@H](O)C/C1=C/C=C1\CCC[C@]2(C)[C@@H]([C@H](C)CCCC(C)(C)O)CC[C@@H]12` [25(OH)VitD3, 25-hydroxyvitamin D3], the B/B0 is, setting by setting: (25 nmoL/L, Reference, without blocking reagent) 81%; (25 nmoL/L, with mAb<24,25(OH)2VitD3> 0.075 mg/mL in R1) 77%; (50 nmoL/L, Reference, without blocking reagent) 59%; (50 nmoL/L, with mAb<24,25(OH)2VitD3> 0.075 mg/mL in R1) 63%; (75 nmoL/L, Reference, without blocking reagent) 44%; (75 nmoL/L, with mAb<24,25(OH)2VitD3> 0.075 mg/mL in R1) 49%. Also, the B/B0 (100 nmoL/L, Reference, without blocking reagent) worked out at 37%; the B/B0 (100 nmoL/L, with mAb<24,25(OH)2VitD3> 0.075 mg/mL in R1) is on record as 42%; the B/B0 (125 nmoL/L, Reference, without blocking reagent) was 30%; the B/B0 (125 nmoL/L, with mAb<24,25(OH)2VitD3> 0.075 mg/mL in R1) is 33%; the B/B0 (150 nmoL/L, Reference, without blocking reagent) came out at 27%; the B/B0 (150 nmoL/L, with mAb<24,25(OH)2VitD3> 0.075 mg/mL in R1) came out at 30%. Moreover, the B/B0 amounted to 22% (200 nmoL/L, Reference, without blocking reagent); 23% (200 nmoL/L, with mAb<24,25(OH)2VitD3> 0.075 mg/mL in R1); 18% (250 nmoL/L, Reference, without blocking reagent); 18% (250 nmoL/L, with mAb<24,25(OH)2VitD3> 0.075 mg/mL in R1); 16% (300 nmoL/L, Reference, without blocking reagent); 15% (300 nmoL/L, with mAb<24,25(OH)2VitD3> 0.075 mg/mL in R1). For the same compound, the B/B0 runs as follows: (374 nmoL/L, Reference, without blocking reagent) 14%; (374 nmoL/L, with mAb<24,25(OH)2VitD3> 0.075 mg/mL in R1) 13%; (499 nmoL/L, Reference, without blocking reagent) 11%; (499 nmoL/L, with mAb<24,25(OH)2VitD3> 0.075 mg/mL in R1) 10%. Also, the “cross-reactivity of the reference immunoassay” value (without blocking reagent) is given as “showed cross-reactivity”.
